From patent publication EP0482657A2, “Cephem compounds, their production and use” (Takeda Chemical Industries, Ltd., priority 1990, dated 1992)

Assays:
Escherichia coli O-111 = test: Therapeutic effects against intraperitoneal infections in mice (oral administration); format: in vivo; settings: O111, po, 120 h; Slc:ICR mice infected intraperitoneally with Escherichia coli O-111; once orally immediately after infection; survival over five days; Reed and Münch; in terms of potency of the said cephem carboxylic acid
Description: (§1) Infections in Mice. Test animals: Slc : ICR, 4-week old male mice (body weight 20 to 22 g) were employed. Induction of experimental infections (infected mice):
(§2) Staphylococcus aureus 308A-1 or Escherichia coli 0-111 was cultured in Brain Heart Infusion broth (manufactured by Difco Co.) at 37°C for 20 hours. Each of the organisms was suspended in a 8% mucin solution (manufactured by Difco in) at a concentration of 2 x 10⁸ Colony Forming Units (hereinafter abbreviated as "CFU")/ml and 2 x 10⁵ CFU/ml, respectively, and 0.5 ml of each suspension was administered intraperitoneally. Administration of Test compounds: 25 mg of each test compound was dissolved in 0.5 ml of DMSO, and each solution was diluted in distilled water to prepare two fold dilutions of each compound in the range of 2.5 mg/ml - 0.156 mg/ml in the case of infection with Staphylococcus aureus and in the range of 0.156 mg/ml - 0.01 mg/ml in the case of infection with Escherichia coli. A volume of 0.2 ml of each dilution was once administered orally using a tube into the stomach of five mice each in each group immediately after the infection. […] The ED₅₀ value of each compound was that in terms of the potency of the said cephem carboxylic acid.

[1] = test system: Staphylococcus aureus 308A-1; test: as above; format: in vivo; settings: 308A1, po, 120 h; Slc:ICR mice infected intraperitoneally with Staphylococcus aureus 308A-1; once orally immediately after infection; survival over five days; Reed and Münch; in terms of potency of the said cephem carboxylic acid
Description: as §1, §2

Row | SMILES | ED50 (Escherichia coli O-111) | ED50 [1]
1 | Cc1nnc(SCC2=C(C(=O)OC(C)OC(=O)OC(C)C)N3C(=O)[C@@H](NC(=O)/C(=N\O)c4csc(N)n4)[C@H]3SC2)s1 (single isomer, unassigned) [Ex.1, 1-(Isopropoxycarbonyloxy)ethyl 7β-[2-(2-aminothiazol-4-yl)-(Z)-2-hydroxyiminoacetamido]-3-[(2-methyl-1,3,4-thiazol-5-yl)thiomethyl]-3-cephem-4-carboxylate] | 0.141 mg/kg | 7.02 mg/kg
2 | Cc1nnc(SCC2=C(C(=O)OC(C)OC(=O)OC(C)C)N3C(=O)[C@@H](NC(=O)/C(=N\O)c4csc(N)n4)[C@H]3SC2)s1.Cl (stereo partly drawn) [Ex.2, 1-(Isopropoxycarbonyloxy)ethyl 7β-[2-(2-aminothiazol-4-yl)-(Z)-2-hydroxyiminoacetamido]-3-[(2-methyl-1,3,4-thiadiazol-5-yl)thiomethyl]-3-cephem-4-carboxylate hydrochloride] | 0.13 mg/kg | 5.57 mg/kg
3 | Cc1nnc(SCC2=C(C(=O)O)N3C(=O)[C@@H](NC(=O)/C(=N\O)c4csc(N)n4)[C@H]3SC2)s1 [GB-A-1587941 Ex.16, 7β-[2-(2-aminothiazol-4-yl)-(Z)-2-hydroxyiminoacetamido]-3-[(2-methyl-1,3,4-thiadiazol-5-yl)thiomethyl]-3-cephem-4-carboxylic acid, reference compound] | 1.25 mg/kg | > 25 mg/kg
4 | Cc1nnc(SCC2=C(C(=O)OC(C)OC(=O)OC3CCC3)N3C(=O)[C@@H](NC(=O)/C(=N\O)c4csc(N)n4)[C@H]3SC2)s1.Cl (stereo partly drawn) [Ex.5, 1-(Cyclobutyloxycarbonyloxy)ethyl 7β-[2-(2-aminothiazol-4-yl)-(Z)-2-hydroxyiminoacetamido]-3-[(2-methyl-1,3,4-thiadiazol-5-yl)thiomethyl]-3-cephem-4-carboxylate hydrochloride] | – | 14 mg/kg
5 | Cc1nnc(SCC2=C(C(=O)OCOC(=O)C(C)(C)C)N3C(=O)[C@@H](NC(=O)/C(=N\O)c4csc(N)n4)[C@H]3SC2)s1 [JP-A-9698/1985 PR Ex.3, pivaloyloxymethyl ester of the said cephem carboxylic acid, reference compound] | 0.279 mg/kg | 22.3 mg/kg
6 | CCC(CC)OC(=O)OC(C)OC(=O)C1=C(CSc2nnc(C)s2)CS[C@@H]2[C@H](NC(=O)/C(=N\O)c3csc(N)n3)C(=O)N12.Cl (stereo partly drawn) [Ex.6, 1-(1-Ethylpropoxycarbonyloxy)ethyl 7β-[2-(2-aminothiazol-4-yl)-(Z)-2-hydroxyiminoacetamido]-3-[(2-methyl-1,3,4-thiadiazol-5-yl)thiomethyl]-3-cephem-4-carboxylate hydrochloride] | – | 12.5 mg/kg
7 | CCOC(=O)OC(C)OC(=O)C1=C(CSc2nnc(C)s2)CS[C@@H]2[C@H](NC(=O)/C(=N\O)c3csc(N)n3)C(=O)N12 (some centres unmarked) [JP-A-9698/1985 PR Ex.4, 1-(ethoxycarbonyloxy)ethyl ester of the said cephem carboxylic acid, reference compound] | 0.349 mg/kg | > 25 mg/kg
8 | Cc1nnc(SCC2=C(C(=O)OC(C)OC(=O)OC3CCCC3)N3C(=O)[C@@H](NC(=O)/C(=N\O)c4csc(N)n4)[C@H]3SC2)s1 (stereo partly drawn) [Ex.3, 1-(Cyclopentyloxycarbonyloxy)ethyl 7β-[2-(2-aminothiazol-4-yl)-(Z)-2-hydroxyiminoacetamido]-3-[(2-methyl-1,3,4-thiadiazol-5-yl)thiomethyl]-3-cephem-4-carboxylate] | 0.13 mg/kg | 8.84 mg/kg
